Measurements from article PMC9504950, “In Vitro and In Silico Analyses of New Cinnamid and Rosmarinic Acid-Derived Compounds Biosynthesized in Escherichia coli as Leishmania amazonensis Arginase Inhibitors” (Pathogens, 2022).
Several values for one entry are separate records, joined by “and”; a condition that tells them apart may be missing. Identical values can stand only once. Like-named read-outs stand apart in the source and are kept apart here.

Legend:
[1] = molecular target: T1, L. amazonensis arginase (L-ARG) (Leishmania amazonensis, UniProt O96394); assay: Recombinant L. amazonensis arginase (L-ARG) inhibition, IC50; assay type: biochemical; settings: for IC50: mean ± SEM; for fold decrease of enzyme inhibition relative to compound 4: compared with compound 4
Experimental: (§1) Recombinant L-ARG was expressed and purified as previously described. A stock solution of 70 mM was prepared in DMSO and was stored at −20 °C for each compound just before the experiment. The concentration that inhibited 50% of the catalytic activity of the enzyme (IC50) was determined using an inhibitor concentration from 200 μM to 0.05 μM; the concentrations were obtained via a serial dilution in water (1:4). The kinetics were determined using three concentrations of the substrate and three concentrations of inhibitor, as previously described. Two independent experiments were performed in triplicate with a coefficient of nonlinear regression R^2 ≥ 0.85. The sigmoidal model (log IC50) was used to determine the IC50 using GraphPad Prism 7 software for Windows (San Diego, CA, USA).

[2] = molecular target: T1, L. amazonensis arginase (L-ARG); assay: Kinetics of arginase inhibition (Dixon and Cornish-Bowden plots); assay type: biochemical; settings: for Mechanism of Inhibition: Dixon and Cornish-Bowden plots; for Ki: Dixon plots, L-arginine 100, 50 and 25 mM
Experimental: The enzyme kinetics were performed to determine the mechanism of inhibition and the dissociation constant (Ki) of the compounds via the simultaneous analysis of the Dixon and Cornish-Bowden plots. The Ki inhibition constants (complex EI), which refer to the equilibriums established between the […] in the presence of an inhibitor (I), were determined (Table 1).
as §1
Figure 1 Kinetics of the arginase inhibition by compounds 2–4, 7, and 9. The mechanism of action was determined by an analysis of the Dixon (A) and Cornish-Bowden plots (B); the Ki constant was measured using Dixon plots by calculating the X values at the intersection point of the lines. […] Each drawn point represents the mean of three independent experiments (n = 3) performed in duplicate.

[3] = molecular target: T1, L. amazonensis arginase (L-ARG); settings: cited from earlier work
[4] = tested on: promastigotes and amastigotes of L. amazonensis; settings: cited from earlier work
L. amazonensis = tested on: L. amazonensis; set-up: method as in PMID 24906989; settings: BALB/c mice, cutaneous leishmaniasis; cited from earlier work
[5] = recombinant L-ARG, read-out: IC50

O=C(CCc1ccc(O)c(O)c1)O[C@H](Cc1ccc(O)c(O)c1)C(=O)O [Compound 3]
IC50 [1, 5]: 3 ± 0.2 µM
Mechanism of Inhibition [2]: Noncompetitive
Ki [2]: 3.9 ± 0.4 µM

C[C@@H]1O[C@@H](O[C@@H]2[C@@H](O)[C@H](OCCc3ccc(O)c(O)c3)O[C@H](CO)[C@H]2OC(=O)/C=C/c2ccc(O)c(O)c2)[C@H](O)[C@H](O)[C@H]1O [verbascoside]
L-ARG inhibition (in words) [3]: inhibits
activity against promastigote and intracellular amastigotes of the parasite [4]: active

O=C(CCc1ccc(O)c(O)c1)O[C@H](Cc1ccc(O)cc1)C(=O)O [Compound 4]
IC50 [1, 5]: 1.9 ± 0.7 µM
Mechanism of Inhibition [2]: Noncompetitive
Ki [2]: 2 ± 0.6 µM

O=C(/C=C/c1ccc(O)cc1)O[C@H](Cc1ccccc1)C(=O)O [Compound 1]
IC50 ([1]; recombinant L-ARG): Inactive

O=C(CCc1ccc(O)c(O)c1)O[C@H](Cc1ccccc1)C(=O)O [Compound 2]
IC50 [1, 5]: 2.8 ± 0.9 µM
Mechanism of Inhibition [2]: Noncompetitive
Ki [2]: 5.7 ± 0.7 µM

O=C(O)CC(OC(=O)/C=C/c1ccc(O)c(O)c1)C(=O)O (stereo not shown) [Compound 7]
fold decrease of enzyme inhibition relative to compound 4 [1]: approximately 20 times
IC50 [1, 5]: 36.2 µM and 36 µM
Mechanism of Inhibition [2]: Noncompetitive
Ki [2]: 74 ± 8 µM

O=C(O)/C=C/c1ccc(O)c(O)c1 [caffeic acid]
lesion size and parasite burden (L. amazonensis): effective in reducing the lesion size and parasite burden
L-ARG inhibition (in words) [3]: inhibitory profile
activity against the promastigotes and amastigotes of L. amazonensis [4]: active

COc1cc(/C=C/C(=O)O)ccc1O [ferulic acid]
lesion size and parasite burden (L. amazonensis): effective in reducing the lesion size and parasite burden
activity against the promastigotes and amastigotes of L. amazonensis [4]: active

O=C(CCc1ccc(O)cc1)O[C@H](Cc1ccc(O)cc1)C(=O)O [Compound 5]
fold decrease of enzyme inhibition relative to compound 4 [1]: at least 100 times
L-ARG inhibition (in words) ([1]; recombinant L-ARG): weak inhibition
IC50 [1, 5]: > 200 µM

O=C(CCc1ccc(O)cc1)O[C@H](Cc1ccccc1)C(=O)O [Compound 6]
IC50 ([1]; recombinant L-ARG): Inactive

O=C(CCc1ccc(O)cc1)Nc1cc(Cl)ccc1C(=O)O [Compound 10]
IC50 ([1]; recombinant L-ARG): Inactive

O=C(/C=C/c1ccc(O)cc1)Nc1cc(Cl)ccc1C(=O)O [Compound 8]
IC50 ([1]; recombinant L-ARG): Inactive

O=C(/C=C/c1ccc(O)c(O)c1)Nc1cc(F)c(F)cc1C(=O)O [Compound 9]
IC50 [1, 5]: 5.5 ± 0.5 µM
Mechanism of Inhibition [2]: Competitive
Ki [2]: 4.6 ± 1.7 µM

O=C(/C=C/c1ccc(O)c(O)c1)O[C@@H]1C[C@](O)(C(=O)O)C[C@@H](O)[C@H]1O [chlorogenic acid]
activity against the promastigotes and amastigotes of L. amazonensis [4]: active

O=C(/C=C/c1ccc(O)c(O)c1)O[C@H](Cc1ccc(O)c(O)c1)C(=O)O [rosmarinic acid]
lesion size and parasite burden (L. amazonensis): effective in reducing the lesion size and parasite burden
L-ARG inhibition (in words) [3]: inhibitory profile
activity against the promastigotes and amastigotes of L. amazonensis [4]: active
